Experimental data published in patent publication US20200008395A1, “METHOD OF USING HUMAN EXCREMENT AND SECRETIONS FOR EARLY DETECTION OF PARKINSON'S DISEASE” (NEURRX, SPC, priority 2017, published 2020).

Experiments:
[1] = Regression model of nutritional supplements and PD progression (PRO-PD score); type: in vivo, human; settings: positive report of consistently using supplement over the previous 6 months, adjusted for years since diagnosis; for Mean change in PRO-PD score (SE)*: age, and gender; for Mean change in PRO-PD score (SE)**: age, gender, and income
Excerpt: When the diagnosis comes 10-15 years or more into the disease, the contribution or effectiveness of a disease-modifying therapy is diminished. Conversely, early detection and intervention by disease-modifying therapies can reduce rate of PD progression or delay disease onset. […] As used herein, PRO-PD is the Patient Reported Outcomes in Parkinson's Disease rating scale, which is used to describe PD disease severity among individuals with a clinical diagnosis of PD.
Certain foods and supplements are known to be associated with different rates of PD progression.

[2] = supplements / pharmaceuticals said to have been shown to slow or reduce progression; cited from earlier work

Row | Molecule | Mean change in PRO-PD score (SE)* [1] | Mean change in PRO-PD score (SE)** [1] | Effect on PD progression (statement in words) [2]
1 | CN1c2c(nc(N)[nH]c2=O)NCC1CNc1ccc(C(=O)N[C@@H](CCC(=O)O)C(=O)O)cc1 (stereo partly drawn) [5-Methyltetrahydrofolate (5-MTHF), 5-Methyltetrahydrofolate] | −17.1 | −25.1 | –
2 | [Ca+2] [Calcium] | −6.2 | 12.5 | –
3 | COC1=C(OC)C(=O)C(C/C=C(\C)CC/C=C(\C)CC/C=C(\C)CC/C=C(\C)CC/C=C(\C)CC/C=C(\C)CC/C=C(\C)CC/C=C(\C)CC/C=C(\C)CCC=C(C)C)=C(C)C1=O [CoQ10, coenzyme Q-10] | – | – | slow the progression of PD
4 | C[C@]12CC[C@H](O)CC1=CC[C@@H]1[C@@H]2CC[C@]2(C)C(=O)CC[C@@H]12 [DHEA, dehydroepiandrosterone] | – | – | slow the progression of PD
5 | N[C@@H](CCC(=O)N[C@@H](CS)C(=O)NCC(=O)O)C(=O)O [Glutathione, oral, glutathione] | – | – | slow the progression of PD
6 | O=C1CC[C@@]2(O)[C@H]3Cc4ccc(O)c5c4[C@@]2(CCN3CC2CC2)[C@H]1O5 [Low-dose naltrexone, naltrexone] | – | – | reduce the rate of progression
7 | NC(=O)C1=CN([C@@H]2O[C@H](COP(=O)(O)OP(=O)(O)OC[C@H]3O[C@@H](n4cnc5c(N)ncnc54)[C@H](O)[C@@H]3O)[C@@H](O)[C@H]2O)C=CC1 [NADH] | −9.7 | −25.2 | –
8 | N[C@@H](Cc1ccc(O)c(O)c1)C(=O)O [levodopa] | – | – | reduce the rate of progression
9 | C#CCN[C@@H]1CCc2ccccc21 [rasagiline] | – | – | reduce the rate of progression
10 | C#CCN(C)[C@H](C)Cc1ccccc1 [selegeline] | – | – | reduce the rate of progression
11 | Vitamin D | −26.1 | −3.6 | –
